Measured values from ChEMBL document CHEMBL4325853, “Design, synthesis and antibacterial evaluation of 2,4-disubstituted-6-thiophenyl-pyrimidines” (Eur J Med Chem, 2019).
Values after ≈ are worked out from the molar mass of the structure shown. Active and inactive are the calls of the source. No cut-off for these calls is given here.

What was measured:
Staphylococcus aureus [1] = test: Potency index, ratio of methicillin MIC to test compound MIC for methicillin-resistant Staphylococcus aureus ATCC BAA1720; assay type: functional
Escherichia coli = test: Antibacterial activity against Escherichia coli ATCC 25922 after 18 hrs by broth microdilution method; assay type: functional; conditions: ATCC 25922, 18 h
Staphylococcus aureus [2] = test: Antibacterial activity against methicillin-resistant Staphylococcus aureus isolate 5426 after 18 hrs by broth microdilution method; assay type: functional; conditions: isolate 5426, 18 h
Staphylococcus aureus [3] = test: Ratio of MBC to MIC for methicillin-resistant Staphylococcus aureus ATCC 43300; assay type: functional
Staphylococcus aureus [4] = test: Antibacterial activity against methicillin-resistant Staphylococcus aureus isolate 2671 after 18 hrs by broth microdilution method; assay type: functional; conditions: isolate 2671, 18 h
Staphylococcus aureus [5] = test: Antibacterial activity against methicillin-resistant Staphylococcus aureus isolate 1610 after 18 hrs by broth microdilution method; assay type: functional; conditions: isolate 1610, 18 h
Staphylococcus aureus [6] = test: Antibacterial activity against methicillin-resistant Staphylococcus aureus isolate 7864 after 18 hrs by broth microdilution method; assay type: functional; conditions: isolate 7864, 18 h
Enterococcus faecalis [7] = test: Ratio of MBC to MIC for vancomycin-resistant Enterococcus faecalis ATCC 700221; assay type: functional
Staphylococcus aureus [8] = test: Antibacterial activity against methicillin-resistant Staphylococcus aureus isolate 4548 after 18 hrs by broth microdilution method; assay type: functional; conditions: isolate 4548, 18 h
Enterococcus faecalis [9] = test: Potency index, ratio of berberine MIC to test compound MIC for Enterococcus faecalis ATCC 29212; assay type: functional
Staphylococcus aureus [10] = test: Antibacterial activity against methicillin-resistant Staphylococcus aureus isolate 7664 after 18 hrs by broth microdilution method; assay type: functional; conditions: isolate 7664, 18 h
Staphylococcus aureus [11] = test: Potency index, ratio of methicillin MIC to test compound MIC for methicillin-resistant Staphylococcus aureus ATCC 33592; assay type: functional
Staphylococcus aureus [12] = test: Antibacterial activity against methicillin-resistant Staphylococcus aureus isolate 3170 after 18 hrs by broth microdilution method; assay type: functional; conditions: isolate 3170, 18 h
Staphylococcus aureus [13] = test: Antibacterial activity against methicillin-resistant Staphylococcus aureus isolate 5239 after 18 hrs by broth microdilution method; assay type: functional; conditions: isolate 5239, 18 h
Staphylococcus aureus [14] = test: Antibacterial activity against Staphylococcus aureus ATCC 29213 after 18 hrs by broth microdilution method; assay type: functional; conditions: ATCC 29213, 18 h
Staphylococcus aureus [15] = test: Potency index, ratio of berberine MIC to test compound MIC for Staphylococcus aureus ATCC 29213; assay type: functional
Staphylococcus aureus [16] = test: Antibacterial activity against methicillin-resistant Staphylococcus aureus isolate 7449 after 18 hrs by broth microdilution method; assay type: functional; conditions: isolate 7449, 18 h
Staphylococcus aureus [17] = test: Antibacterial activity against methicillin-resistant Staphylococcus aureus isolate 4023 after 18 hrs by broth microdilution method; assay type: functional; conditions: isolate 4023, 18 h
Staphylococcus aureus [18] = test: Antibacterial activity against methicillin-resistant Staphylococcus aureus isolate 6515 after 18 hrs by broth microdilution method; assay type: functional; conditions: isolate 6515, 18 h
Enterococcus faecium = test: Potency index, ratio of berberine MIC to test compound MIC for Enterococcus faecium ATCC 49624; assay type: functional
Staphylococcus aureus [19] = test: Antibacterial activity against methicillin-resistant Staphylococcus aureus isolate 5035 after 18 hrs by broth microdilution method; assay type: functional; conditions: isolate 5035, 18 h
Staphylococcus aureus [20] = test: Antibacterial activity against methicillin-resistant Staphylococcus aureus isolate 1220 after 18 hrs by broth microdilution method; assay type: functional; conditions: isolate 1220, 18 h
Staphylococcus aureus [21] = test: Antibacterial activity against methicillin-resistant Staphylococcus aureus ATCC 33591 after 18 hrs by broth microdilution method; assay type: functional; conditions: ATCC 33591, 18 h
Staphylococcus aureus [22] = test: Antibacterial activity against methicillin-resistant Staphylococcus aureus isolate 7971 after 18 hrs by broth microdilution method; assay type: functional; conditions: isolate 7971, 18 h
Staphylococcus aureus [23] = test: Antibacterial activity against methicillin-resistant Staphylococcus aureus isolate 7960 after 18 hrs by broth microdilution method; assay type: functional; conditions: isolate 7960, 18 h
Staphylococcus aureus [24] = test: Antibacterial activity against methicillin-resistant Staphylococcus aureus isolate 2158 after 18 hrs by broth microdilution method; assay type: functional; conditions: isolate 2158, 18 h
Staphylococcus aureus [25] = test: Antibacterial activity against methicillin-resistant Staphylococcus aureus isolate 7863 after 18 hrs by broth microdilution method; assay type: functional; conditions: isolate 7863, 18 h
Staphylococcus aureus [26] = test: Antibacterial activity against methicillin-resistant Staphylococcus aureus isolate 7916 after 18 hrs by broth microdilution method; assay type: functional; conditions: isolate 7916, 18 h
Staphylococcus aureus [27] = test: Antibacterial activity against methicillin-resistant Staphylococcus aureus isolate 1428 after 18 hrs by broth microdilution method; assay type: functional; conditions: isolate 1428, 18 h
Staphylococcus aureus [28] = test: Antibacterial activity against methicillin-resistant Staphylococcus aureus ATCC 33592 after 18 hrs by broth microdilution method; assay type: functional; conditions: ATCC 33592, 18 h
Staphylococcus aureus [29] = test: Antibacterial activity against methicillin-resistant Staphylococcus aureus isolate 8162 after 18 hrs by broth microdilution method; assay type: functional; conditions: isolate 8162, 18 h
Staphylococcus aureus [30] = test: Antibacterial activity against methicillin-resistant Staphylococcus aureus isolate 5395 after 18 hrs by broth microdilution method; assay type: functional; conditions: isolate 5395, 18 h
Staphylococcus aureus [31] = test: Antibacterial activity against methicillin-resistant Staphylococcus aureus isolate 8179 after 18 hrs by broth microdilution method; assay type: functional; conditions: isolate 8179, 18 h
Enterococcus faecalis [32] = test: Antibacterial activity against vancomycin-resistant Enterococcus faecalis ATCC 51575 after 18 hrs by broth microdilution method; assay type: functional; conditions: ATCC 51575, 18 h
Staphylococcus aureus [33] = test: Antibacterial activity against methicillin-resistant Staphylococcus aureus isolate 8071 after 18 hrs by broth microdilution method; assay type: functional; conditions: isolate 8071, 18 h
Staphylococcus aureus [34] = test: Antibacterial activity against methicillin-resistant Staphylococcus aureus isolate 7917 after 18 hrs by broth microdilution method; assay type: functional; conditions: isolate 7917, 18 h
Staphylococcus aureus [35] = test: Antibacterial activity against methicillin-resistant Staphylococcus aureus isolate 7247 after 18 hrs by broth microdilution method; assay type: functional; conditions: isolate 7247, 18 h
Enterococcus faecalis [36] = test: Bactericidal activity against vancomycin-resistant Enterococcus faecalis ATCC 700221 after 18 hrs by broth microdilution method; assay type: functional; conditions: ATCC 700221, 18 h
Staphylococcus aureus [37] = test: Antibacterial activity against Staphylococcus aureus ATCC 29213 after 10 passages by broth microdilution method; assay type: functional, organism-based
[38] = Selectivity index, ratio of HC50 for human erythrocytes to MIC for methicillin-resistant Staphylococcus aureus ATCC BAA41; assay type: toxicity; conditions: read-out: Selectivity Index
[39] = Selectivity index, ratio of HC50 for human erythrocytes to MIC for methicillin-resistant Staphylococcus aureus ATCC 43300; assay type: toxicity; conditions: read-out: Selectivity Index

## FC(F)(F)c1ccc(CN2CCCN(CCc3cc(-c4cccs4)nc(-c4ccncc4)n3)CC2)cc1
Staphylococcus aureus [1]
  Ratio: >100
Escherichia coli
  MIC90: 128 µg/mL (≈ 244 µM)
Staphylococcus aureus [2]
  MIC90: 8 µg/mL (≈ 15.3 µM)
Staphylococcus aureus [3]
  Ratio: 2
Staphylococcus aureus [4]
  MIC90: 4 µg/mL (≈ 7.64 µM)
Staphylococcus aureus [5]
  MIC90: 8 µg/mL (≈ 15.3 µM)
Staphylococcus aureus [6]
  MIC90: 4 µg/mL (≈ 7.64 µM)
Enterococcus faecalis [7]
  Ratio: 2
Staphylococcus aureus [8]
  MIC90: 4 µg/mL (≈ 7.64 µM)
Enterococcus faecalis [9]
  Ratio: 50 - 100
Staphylococcus aureus [10]
  MIC90: 4 µg/mL (≈ 7.64 µM)
Staphylococcus aureus [11]
  Ratio: >100
Staphylococcus aureus [12]
  MIC90: 8 µg/mL (≈ 15.3 µM)
Staphylococcus aureus [13]
  MIC90: 4 µg/mL (≈ 7.64 µM)
Staphylococcus aureus [14]
  MIC90: 4 µg/mL (≈ 7.64 µM)
Staphylococcus aureus [15]
  Ratio: 50 - 100
Staphylococcus aureus [16]
  MIC90: 4 µg/mL (≈ 7.64 µM)
Staphylococcus aureus [17]
  MIC90: 4 µg/mL (≈ 7.64 µM)
Staphylococcus aureus [18]
  MIC90: 4 µg/mL (≈ 7.64 µM)
Enterococcus faecium
  Ratio: 50 - 100
Staphylococcus aureus [19]
  MIC90: 4 µg/mL (≈ 7.64 µM)
Staphylococcus aureus [20]
  MIC90: 4 µg/mL (≈ 7.64 µM)
Staphylococcus aureus [21]
  MIC90: 4 µg/mL (≈ 7.64 µM)
Staphylococcus aureus [22]
  MIC90: 4 µg/mL (≈ 7.64 µM)
Staphylococcus aureus [23]
  MIC90: 4 µg/mL (≈ 7.64 µM)
Staphylococcus aureus [24]
  MIC90: 4 µg/mL (≈ 7.64 µM)
Staphylococcus aureus [25]
  MIC90: 4 µg/mL (≈ 7.64 µM)
Staphylococcus aureus [26]
  MIC90: 4 µg/mL (≈ 7.64 µM)
Staphylococcus aureus [27]
  MIC90: 4 µg/mL (≈ 7.64 µM)
Staphylococcus aureus [28]
  MIC90: 4 µg/mL (≈ 7.64 µM)
Staphylococcus aureus [29]
  MIC90: 4 µg/mL (≈ 7.64 µM)
Staphylococcus aureus [30]
  MIC90: 4 µg/mL (≈ 7.64 µM)
Staphylococcus aureus [31]
  MIC90: 4 µg/mL (≈ 7.64 µM)
Enterococcus faecalis [32]
  MIC90: 4 µg/mL (≈ 7.64 µM)
Staphylococcus aureus [33]
  MIC90: 4 µg/mL (≈ 7.64 µM)
Staphylococcus aureus [34]
  MIC90: 4 µg/mL (≈ 7.64 µM)
Staphylococcus aureus [35]
  MIC90: 4 µg/mL (≈ 7.64 µM)
Enterococcus faecalis [36]
  MBC: 8 µg/mL (≈ 15.3 µM)

## CC(C)(C)c1ccc(CN2CCCN(CCc3cc(-c4cccs4)nc(-c4ccncc4)n3)CC2)cc1
Staphylococcus aureus [1]
  Ratio: >100
Escherichia coli
  MIC90: 128 µg/mL (≈ 250 µM)
Staphylococcus aureus [37]
  Activity: Active
[38]
  selectivity ratio: > 32
Staphylococcus aureus [2]
  MIC90: 2 µg/mL (≈ 3.91 µM)
Staphylococcus aureus [3]
  Ratio: 2
Staphylococcus aureus [4]
  MIC90: 2 µg/mL (≈ 3.91 µM)
Staphylococcus aureus [5]
  MIC90: 4 µg/mL (≈ 7.82 µM)
Staphylococcus aureus [6]
  MIC90: 2 µg/mL (≈ 3.91 µM)
Enterococcus faecalis [7]
  Ratio: 1
Staphylococcus aureus [8]
  MIC90: 2 µg/mL (≈ 3.91 µM)
Enterococcus faecalis [9]
  Ratio: 50 - 100
Staphylococcus aureus [10]
  MIC90: 2 µg/mL (≈ 3.91 µM)
Staphylococcus aureus [11]
  Ratio: >100
Staphylococcus aureus [12]
  MIC90: 2 µg/mL (≈ 3.91 µM)
Staphylococcus aureus [13]
  MIC90: 2 µg/mL (≈ 3.91 µM)
Staphylococcus aureus [14]
  MIC90: 2 µg/mL (≈ 3.91 µM)
Staphylococcus aureus [15]
  Ratio: 50 - 100
Staphylococcus aureus [16]
  MIC90: 2 µg/mL (≈ 3.91 µM)
Staphylococcus aureus [17]
  MIC90: 2 µg/mL (≈ 3.91 µM)
Staphylococcus aureus [18]
  MIC90: 4 µg/mL (≈ 7.82 µM)
Enterococcus faecium
  Ratio: 50 - 100
Staphylococcus aureus [19]
  MIC90: 2 µg/mL (≈ 3.91 µM)
Staphylococcus aureus [20]
  MIC90: 2 µg/mL (≈ 3.91 µM)
[39]
  selectivity ratio: > 32
Staphylococcus aureus [21]
  MIC90: 2 µg/mL (≈ 3.91 µM)
Staphylococcus aureus [22]
  MIC90: 2 µg/mL (≈ 3.91 µM)
Staphylococcus aureus [23]
  MIC90: 2 µg/mL (≈ 3.91 µM)
Staphylococcus aureus [24]
  MIC90: 2 µg/mL (≈ 3.91 µM)
Staphylococcus aureus [25]
  MIC90: 2 µg/mL (≈ 3.91 µM)
Staphylococcus aureus [26]
  MIC90: 2 µg/mL (≈ 3.91 µM)
Staphylococcus aureus [27]
  MIC90: 2 µg/mL (≈ 3.91 µM)
Staphylococcus aureus [28]
  MIC90: 2 µg/mL (≈ 3.91 µM)
Staphylococcus aureus [29]
  MIC90: 2 µg/mL (≈ 3.91 µM)
Staphylococcus aureus [30]
  MIC90: 2 µg/mL (≈ 3.91 µM)
Staphylococcus aureus [31]
  MIC90: 2 µg/mL (≈ 3.91 µM)
Enterococcus faecalis [32]
  MIC90: 4 µg/mL (≈ 7.82 µM)
Staphylococcus aureus [33]
  MIC90: 2 µg/mL (≈ 3.91 µM)
Staphylococcus aureus [34]
  MIC90: 2 µg/mL (≈ 3.91 µM)
Staphylococcus aureus [35]
  MIC90: 2 µg/mL (≈ 3.91 µM)
Enterococcus faecalis [36]
  MBC: 4 µg/mL (≈ 7.82 µM)
